Source: US6635628B2, “Methods of administering camptothecin compounds for the treatment of cancer with reduced side effects” (The George Washington University, priority 1998, dated 2003)
“Also recorded” adds a separate entry of the source. Like-named read-outs stand apart in the source and are kept apart here. Marks after values point to notes of the source that are not given here.

How the values were obtained:
[1] = system: intestinal cells from whole small-intestine; assay: Uptake of 14C-labeled CPT-11 and SN-38 by intestinal cells, regions combined or not distinguished (TCA, pH, bicarbonate effects); conditions: for uptake rate of the lactone compared with the carboxylate form: cells from both intestinal regions; for saturability of the uptake (predominant component): SN-38 concentrations lower than 2 μM
Method: By adding the drugs to Hank's solution containing intestinal cells from whole small-intestine, uptake studies were performed.
(§1) Intestinal cells were isolated as previously described (28, 29). Briefly, male hamsters were anesthetized with sodium pentobarbital (Nembutol 70 mg/kg body weight). The entire intestine was removed. The intestinal lumen was washed with 37° C. Hank's solution. Sacs of the ileum (12.5 cm from cecum) and jejunum (remaining small intestine) were rinsed, as well as the intestinal sacs of the anal site of small intestine (12.5 cm from cecum) and oral site (the other small intestine). The sacs were rinsed with oxygenated buffer solution containing sodium citrate (96 mM NaCl, 1.5 mM KCl, 5.6 mM KH2PO4, 27 mM sodium citrate, pH 7.3), and incubated for 10 min in the same buffer at 37° C. The sacs were then emptied, filled with oxygenated buffer solution containing EDTA (140 mM NaCl, 16 mM Na2HPO4, 2 mM EDTA, 0.5 mM dithiothreitol, pH 7.3), incubated for 10 min at 37° C. Then each sac was placed onto a petri dish and gently vortexed for 1 min. The buffer containing intestinal cells was recovered in 50 mL of Hanks' solution, washed twice and adjusted at 10^6 cells/ml in Hanks' medium (cellular stock solution containing 0.5% bovine serum albumin, pH 7.4).
(§2) The cellular suspension of 0.95 ml was incubated for 15 min in a 37° C. water bath with stirring. Uptake was started by the addition of 0.05 ml PBS (at pH 3 or 9) containing labeled SN-38 or CPT-11 at 37° C. At various time intervals, 100 μL, sample aliquots were diluted into 3 mL of Hank's medium at 4° C. to stop the uptake. The stop solution containing the cells was filtered through a glass microfiber filter (Glass Fiber Filter Circles G4, Fisherbrand, Pa.) under vacuum (20 psi). The cells were washed once with 5 mL of 0.5% bovine serum albumin-containing Hanks' medium (4° C.) and once with 20 mL of Hanks' solution (4° C.). The filters were placed in a vial containing 4 mL of scintillation liquid (Ultra Gold, Packard, Conn.) and the radioactivity was counted in a β scintillation counter (LS3801, Beckman, Md.).
(§3) The effect of the metabolic inhibitor, 2,4 dinitrophenol (1 mM), was studied by adding this agent to the cells 3 min prior to either ^14C-CPT-11 or ^14C-SN-38 (2 μM). The effect of 20 mM of taurocholic acid (TCA) on the uptake of both CPT-11 and SN-38 was investigated following overnight incubation of ^14C-CPT-11 (20 μM) and ^14C-SN-38 (2 μM) in Hank's solution, at pH 7.4 and in the presence and absence of TCA. The effect of 200 μM of DNP-SG or SN-38-Glu was also studied by adding these agents to the cell preparation 7 min prior to either ^14C-CPT-11 (20 μM) and ^14C-SN-38 (2 μM).
The effect of physiologic pH on the initial intestinal uptake rate of CPT-11 and SN-38 was investigated following overnight incubation of ^14C-CPT-11 (20 μM) and ^14C-SN-38 (2 μM) in phosphate buffered saline at pH 6.2, 6.8, 7.4 and 8, respectively.
(§4) The initial rate of uptake of CPT-11 or SN-38 was derived from the linear regression analysis of the respective regression line obtained from the plot of the uptake as a function of time. The initial rates of uptake were plotted against the corresponding concentration. The data were fitted by least-squares nonlinear regression analysis (SigmaStat, Jandel Scientific, CA), using the equation V=(Vmax·S)/(Km+S)+Kd·S where V represents the initial rate of uptake. Vmax is the maximum rate of uptake, Km is the apparent Michaelis constant, Kd is the rate of diffusion and S is the concentration of CPT-11 or SN-38.

[2] = assay type: physicochemical; conditions: 1,000-molecular weight cut-off membrane
From the text: Monomers were separated from micellar aggregates by ultrafiltration through a 1000-molecular weight cut-off membrane (YM1) as described in Materials and Methods. Values are the monomeric forms of the indicated metabolites, expressed as a percentage (%) of the concentration of the initial solution before ultrafiltration. Comparison between TCA and control was estimated by Mann-Whitney test. […] Abbreviations used: CPT lactone (CPT lact.); CPT carboxylate (CPT carb.); SN-38 lactone (SN lact.); and SN-38 carboxylate (SN carb.).

[3] = CPT-11 metabolite formed by hepatic cytochrome P-450 3A; cited from earlier work
[4] = bile of two men treated by cisplatin who received CPT-11 intravenously; cited from earlier work
[5] = system: isolated intestinal cells from jejunum; assay type: in vitro ADME, hamster
Method: (§5) The other drugs were dissolved in distilled water. […] DNP-SG was made from glutathione and CDNB (1-chloro-2,4-dinitro benzene) chemically. All other reagents were of analytical grade. Adult male Golden Syrian hamsters (6-8 weeks age), whose model presents a bile acid profile similar to that observed in human (28), were used.
as §1, §2, §3, §4

[6] = system: ileal cells; assay type: in vitro ADME, hamster
Method: as §5, §1, §2, §3, §4

[7] = cited from earlier work
[8] = cited from earlier work; remark: listed apart in the source
[9] = bile acid micelles; cited from earlier work
[10] = 20 μM 14C-CPT-11, 2 μM 14C-SN-38
[11] = % of control, inhibitor 200 μM added 7 min before [14C]CPT-11 (20 μM), n=5
[12] = % of control, inhibitor 200 μM added 7 min before [14C]SN-38 (2 μM), n=5
[13] = % of control, inhibitor 1 mM added 3 min before [14C]CPT-11 (20 μM), n=5
[14] = % of control, inhibitor 1 mM added 3 min before [14C]SN-38 (2 μM), n=5

CCc1c2c(nc3ccc(O)cc13)-c1cc3c(c(=O)n1C2)COC(=O)[C@]3(O)CC [SN-38 lactone]
transport mechanism in intestinal cells [1]: passively transported | uptake rate of the lactone compared with the carboxylate form [1, 10]: more rapidly taken up; also recorded: several times greater | saturability of the uptake (predominant component) ([1]; jejunal and ileal cells): mostly non-saturable | effect of TCA on % monomer concentration / association to TCA micelles [2]: significantly decreased

CCc1c2c(nc3ccc(OC(=O)N4CCC(NCCCCC(=O)O)CC4)cc13)-c1cc3c(c(=O)n1C2)COC(=O)C3(O)CC (stereo not drawn) [7-ethyl-10-[4-N-(5-aminopentanoic acid)-1-piperidino]carbonyloxycamptothecin]
antitumor activity weaker than SN-38 [3]: 500 fold

CCc1c2c(nc3ccc(O[C@@H]4O[C@H](C(=O)O)[C@@H](O)[C@H](O)[C@H]4O)cc13)-c1cc3c(c(=O)n1C2)COC(=O)[C@]3(O)CC [SN38-Glu, SN-38 β-glucuronide]
effect of the added agent on the uptake of CPT-11 carboxylate ([1]; intestinal region not given): remained unchanged | effect of the added agent on the uptake rate of CPT-11 lactone ([1]; intestinal region not given): not significantly affected | effect of the added agent on the uptake rate of SN-38 lactone ([1]; intestinal region not given): not significantly affected | share of the biliary content [4]: 7.3-18.9% | initial uptake rate of CPT-11 carboxylate, jejunum [5, 11]: 108.9% | initial uptake rate of CPT-11 lactone, jejunum [5, 11]: 88.9% | initial uptake rate of SN-38 carboxylate, jejunum [5, 12]: 40.1* % | initial uptake rate of SN-38 lactone, jejunum [5, 12]: 54.3% | initial uptake rate of CPT-11 carboxylate, ileum [6, 11]: 93.9% | initial uptake rate of SN-38 carboxylate, ileum [6, 12]: 28.9* %

CCc1c2c(nc3ccc(OC(=O)N4CCC(N5CCCCC5)CC4)cc13)-c1cc3c(c(=O)n1C2)COC(=O)[C@]3(O)CC.Cl [CPT-11, (4S)-4,11-diethyl-4-hydroxy-9-[(4-piperidinopiperidino)carbonyloxy]1H-pyrano [3′,4′:6,7] indolizino[1,2-b]quinoline-3,14(4 h, 12H)dione hydrochloride]
share in lactone form at pH 7.4 [7]: 13% | initial uptake rate at acidic pH (pH 6.2 and 6.8) versus neutral or alkaline pH (pH 7.4 and 8) [1]: several times greater | initial uptake rate in the presence of 20 mM TCA ([1]; cells from jejunum and ileum combined, 14C-CPT-11 20 μM, 14C-SN-38 2 μM, pH 7.4, mean±SD, n=5): 48.5±10.8 % of control without TCA | decrease of the uptake rate at a pH greater than 6.8 ([1]; pH 6.2 to 8, 20 μM 14C-CPT-11, 2 μM 14C-SN-38): around 65% | uptake when HEPES of the Hank's buffer was replaced by sodium bicarbonate ([1]; pH adjusted to greater than 7): decreased | share of the biliary content [4]: 75.6-91.9% | incidence of grade 4 diarrhea ([8]; before adoption of loperimide therapy): 17% | incidence of grade 4 diarrhea ([8]; following adoption of an aggressive loperimide therapy): 5%

CC(C)CCC[C@@H](C)[C@H]1CC[C@H]2[C@@H]3CC=C4C[C@@H](O)CC[C@]4(C)[C@H]3CC[C@]12C [cholesterol]
percentage of the monomer concentration (comparison values) [9]: 3%

O=[N+]([O-])c1ccc(O)c([N+](=O)[O-])c1 [Dinitrophenol, 2,4-dinitrophenol]
effect of the added agent on the uptake rate of CPT-11 lactone ([1]; intestinal region not given): not significantly affected | effect of the added agent on the uptake rate of SN-38 lactone ([1]; intestinal region not given): not significantly affected | initial uptake rate of CPT-11 carboxylate, jejunum [5, 13]: 22.6% | initial uptake rate of CPT-11 lactone, jejunum [5, 13]: 94.1% | initial uptake rate of SN-38 carboxylate, jejunum [5, 14]: 25.5% | initial uptake rate of SN-38 lactone, jejunum [5, 14]: 96.1% | initial uptake rate of CPT-11 carboxylate, ileum [6, 13]: 29.2% | initial uptake rate of CPT-11 lactone, ileum [6, 13]: 105.5% | initial uptake rate of SN-38 carboxylate, ileum [6, 14]: 30.8% | initial uptake rate of SN-38 lactone, ileum [6, 14]: 134.9%

CCCCCCCC/C=C\CCCCCCCC(=O)O [oleic acid]
percentage of the monomer concentration (comparison values) [9]: 2.3%

CCc1c2c(nc3ccc(OC(=O)N4CCC(N5CCCCC5)CC4)cc13)-c1cc3c(c(=O)n1C2)COC(=O)[C@]3(O)CC [CPT-11 lactone]
transport mechanism in intestinal cells [1]: passively transported | uptake rate of the lactone compared with the carboxylate form [1, 10]: more rapidly taken up; also recorded: several times greater | Kd lower than that of SN-38 lactone ([1]; jejunal and ileal cells): 1.8-2.5 fold | saturability of the uptake (predominant component) ([1]; jejunal and ileal cells): non-saturable | effect of TCA on % monomer concentration / association to TCA micelles [2]: significantly decreased

N[C@@H](CCC(=O)N[C@@H](CSc1ccc([N+](=O)[O-])cc1[N+](=O)[O-])C(=O)NCC(=O)O)C(=O)O [DNP-SG, 2,4-dinitrophenyl-S-glutathione]
effect of the added agent on the uptake rate of SN-38 lactone [1]: not significantly affected | effect of the added agent on the uptake of CPT-11 carboxylate ([1]; intestinal region not given): remained unchanged | effect of the added agent on the uptake rate of CPT-11 lactone ([1]; intestinal region not given): not significantly affected | initial uptake rate of CPT-11 carboxylate, jejunum [5]: 103.2% | initial uptake rate of CPT-11 lactone, jejunum [5]: 105.4% | initial uptake rate of SN-38 carboxylate, jejunum [5]: 32.0* % | initial uptake rate of SN-38 lactone, jejunum [5]: 78.8% | initial uptake rate of CPT-11 carboxylate, ileum [6]: 105.8% | initial uptake rate of SN-38 carboxylate, ileum [6]: 28.5* %

CCc1c2c(nc3ccc(OC(=O)N4CCC(N5CCCCC5)CC4)cc13)-c1cc([C@@](O)(CC)C(=O)O)c(CO)c(=O)n1C2 [CPT-11 carboxylate]
transport mechanism in intestinal cells [1]: actively absorbed | Km ([5]; jejunum, fit V=(Vmax·S)/(Km+S)+Kd·S, mean, read-out: Km (apparent Michaelis constant of uptake)): 51.3 µM | Vmax (maximum rate of uptake) ([5]; jejunum, nonlinear regression fit, mean): 146.9 p mol · 10 ^6 cells^−1 · min^−1 | Km ([6]; ileum, fit V=(Vmax·S)/(Km+S)+Kd·S, mean, read-out: Km (apparent Michaelis constant of uptake)): 50.5 µM | Vmax (maximum rate of uptake) ([6]; ileum, nonlinear regression fit, mean): 157.3 p mol · 10 ^6 cells^−1 · min^−1
